By IC50 is commonly meant the concentration at which inhibition is half-maximal.

In assay [1] the target is Phosphatidylinositol 4,5-bisphosphate 3-kinase catalytic subunit gamma isoform (Homo sapiens, UniProt P48736). The assay is described as follows: (§1) PI 3-Kinase HTRF Assay: Briefly, the assay is a time resolved FRET assay that indirectly measures PIP3 product formed by the activity of a PI3-K. The kinase reaction is performed in a microtitre plate (e.g., a 384 well microtitre plate). The total reaction volume is approximately 20 ul per well. In the first step, each well receives 2 ul of test compound in 20% dimethylsulphoxide resulting in a 2% DMSO final concentration. Next, approximately 14.5 ul of a kinase/PIP2 mixture (diluted in 1x reaction buffer) is added per well for a final concentration of 0.25-0.3 ug/ml kinase and 10 uM PIP2. The plate is sealed and incubated for 15 minutes at room temperature. To start the reaction, 3.5 ul of ATP (diluted in 1x reaction buffer) is added per well for a final concentration of 10 uM ATP. The plate is sealed and incubated for 1 hour at room temperature. The reaction is stopped by adding 5 ul of Stop Solution per well and then 5 ul of Detection Mix is added per well. The plate is sealed, incubated for 1 hour at room temperature, and then read on an appropriate plate reader. For orientation: In TR-FRET formats the signal depends on donor and acceptor labels being close together.

A short description of assay [2]: as §1.
Assay [3] deals with Phosphatidylinositol 3-kinase regulatory subunit beta (Homo sapiens, UniProt O00459). The description is as §1.
The target of assay [4] is T1, Phosphatidylinositol 4,5-bisphosphate 3-kinase catalytic subunit delta isoform (Homo sapiens, UniProt O00329).
T1 sequence (O00329 whole entry): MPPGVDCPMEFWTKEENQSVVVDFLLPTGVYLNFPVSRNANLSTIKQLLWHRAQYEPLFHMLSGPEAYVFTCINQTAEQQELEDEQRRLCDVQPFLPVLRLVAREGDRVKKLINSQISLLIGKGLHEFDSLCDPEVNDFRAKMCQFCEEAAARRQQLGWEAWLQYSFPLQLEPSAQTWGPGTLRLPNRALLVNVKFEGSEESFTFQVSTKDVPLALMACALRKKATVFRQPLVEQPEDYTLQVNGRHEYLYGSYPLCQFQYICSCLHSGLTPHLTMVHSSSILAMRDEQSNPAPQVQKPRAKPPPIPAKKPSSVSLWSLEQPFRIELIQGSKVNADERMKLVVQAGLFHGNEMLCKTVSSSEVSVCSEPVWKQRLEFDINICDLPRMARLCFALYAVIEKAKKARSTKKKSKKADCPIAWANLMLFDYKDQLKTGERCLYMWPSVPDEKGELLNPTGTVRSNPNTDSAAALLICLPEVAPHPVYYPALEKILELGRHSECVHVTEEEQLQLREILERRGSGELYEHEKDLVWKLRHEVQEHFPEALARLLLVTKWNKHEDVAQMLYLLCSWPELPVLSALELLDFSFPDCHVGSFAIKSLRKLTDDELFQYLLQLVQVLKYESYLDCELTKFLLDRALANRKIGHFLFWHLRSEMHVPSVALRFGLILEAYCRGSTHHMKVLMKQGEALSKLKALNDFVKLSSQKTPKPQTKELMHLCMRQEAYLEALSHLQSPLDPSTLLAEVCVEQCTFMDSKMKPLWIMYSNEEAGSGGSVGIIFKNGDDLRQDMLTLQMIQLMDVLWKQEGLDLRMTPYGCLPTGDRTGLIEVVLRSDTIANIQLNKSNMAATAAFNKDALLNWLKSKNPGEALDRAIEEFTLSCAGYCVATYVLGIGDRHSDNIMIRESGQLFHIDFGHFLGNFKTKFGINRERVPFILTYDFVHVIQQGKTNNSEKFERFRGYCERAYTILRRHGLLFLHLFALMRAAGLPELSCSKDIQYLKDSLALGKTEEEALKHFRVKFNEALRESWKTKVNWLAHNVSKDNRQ
Described as §1.

Phosphatidylinositol 3-kinase regulatory subunit beta, sequence (O00459 whole entry, canonical isoform): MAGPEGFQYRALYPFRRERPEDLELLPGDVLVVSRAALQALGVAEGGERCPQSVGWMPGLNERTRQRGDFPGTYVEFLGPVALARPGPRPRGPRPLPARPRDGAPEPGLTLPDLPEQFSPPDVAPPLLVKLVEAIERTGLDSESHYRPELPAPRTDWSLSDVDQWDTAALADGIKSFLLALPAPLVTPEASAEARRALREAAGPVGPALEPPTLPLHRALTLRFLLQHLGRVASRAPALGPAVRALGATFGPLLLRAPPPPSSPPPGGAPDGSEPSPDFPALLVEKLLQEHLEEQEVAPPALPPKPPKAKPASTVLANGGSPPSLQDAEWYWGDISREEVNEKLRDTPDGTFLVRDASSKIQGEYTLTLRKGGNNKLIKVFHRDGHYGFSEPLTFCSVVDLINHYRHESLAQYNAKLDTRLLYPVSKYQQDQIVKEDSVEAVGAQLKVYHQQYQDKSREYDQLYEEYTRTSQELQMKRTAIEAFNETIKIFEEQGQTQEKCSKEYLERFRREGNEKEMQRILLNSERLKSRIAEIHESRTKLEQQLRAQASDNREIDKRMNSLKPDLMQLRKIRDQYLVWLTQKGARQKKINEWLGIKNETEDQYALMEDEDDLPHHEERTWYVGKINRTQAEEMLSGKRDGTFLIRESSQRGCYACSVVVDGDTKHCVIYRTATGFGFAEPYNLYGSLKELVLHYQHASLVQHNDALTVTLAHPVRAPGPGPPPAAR
Phosphatidylinositol 4,5-bisphosphate 3-kinase catalytic subunit gamma isoform, sequence (P48736 whole entry, canonical isoform): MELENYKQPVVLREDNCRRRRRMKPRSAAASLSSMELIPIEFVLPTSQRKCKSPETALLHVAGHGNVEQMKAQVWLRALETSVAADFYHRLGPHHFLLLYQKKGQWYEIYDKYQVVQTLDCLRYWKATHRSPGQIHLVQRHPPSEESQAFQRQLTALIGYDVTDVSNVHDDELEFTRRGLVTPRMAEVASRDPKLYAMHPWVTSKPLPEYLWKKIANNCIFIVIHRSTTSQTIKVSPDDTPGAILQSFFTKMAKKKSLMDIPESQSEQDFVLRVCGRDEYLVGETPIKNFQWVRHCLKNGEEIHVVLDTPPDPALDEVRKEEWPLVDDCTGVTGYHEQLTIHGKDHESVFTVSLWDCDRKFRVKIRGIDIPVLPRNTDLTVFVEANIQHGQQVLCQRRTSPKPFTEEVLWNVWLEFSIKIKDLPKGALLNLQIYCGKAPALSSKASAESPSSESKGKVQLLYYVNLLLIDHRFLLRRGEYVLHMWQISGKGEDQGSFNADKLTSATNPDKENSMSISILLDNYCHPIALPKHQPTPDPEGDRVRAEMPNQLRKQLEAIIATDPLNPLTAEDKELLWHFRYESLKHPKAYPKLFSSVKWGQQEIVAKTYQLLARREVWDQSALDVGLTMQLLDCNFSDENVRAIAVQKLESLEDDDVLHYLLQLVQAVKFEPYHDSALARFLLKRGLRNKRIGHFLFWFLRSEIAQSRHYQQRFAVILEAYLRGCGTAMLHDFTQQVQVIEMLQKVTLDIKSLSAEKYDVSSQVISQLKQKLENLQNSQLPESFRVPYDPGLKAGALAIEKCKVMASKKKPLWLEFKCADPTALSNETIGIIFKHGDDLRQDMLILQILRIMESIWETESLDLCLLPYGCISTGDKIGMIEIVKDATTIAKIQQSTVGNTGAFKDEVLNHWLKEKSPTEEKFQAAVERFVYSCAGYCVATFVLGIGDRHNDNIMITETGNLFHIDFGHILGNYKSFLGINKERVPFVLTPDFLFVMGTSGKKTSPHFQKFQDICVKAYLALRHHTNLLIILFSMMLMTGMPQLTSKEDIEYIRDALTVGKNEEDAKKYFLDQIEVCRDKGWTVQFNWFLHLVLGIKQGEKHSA

`Nc1nc2cc(-c3ccc4ncn(-c5ccccc5)c4c3)ccc2o1`: the 50% inhibitory concentration (IC50) in assay [1] is under 1 µM. In the case of `C[C@@H]1COCCN1C1CN(c2cnc3ccc(-c4ccc5oc(N)nc5c4)nc3n2)C1`, in assay [2], the IC50 is under 100 nM. On to `CC(C)(N)C(=O)N1CCN(c2cnc3ccc(-c4ccc5oc(N)nc5c4)nc3n2)CC1`, for which, in assay [3], the IC50 is under 10000 nM. On to `Nc1nc2cc(-c3ccc4ncc(C(=O)N5CCC(N6CCC(F)(F)C6)C5)n4c3)ccc2o1` (stereo not drawn), for which the IC50 in assay [1] and in assay [4] was under 10 µM in each case. `Nc1nc2cc(-c3ccc4ncc(N5CCN(C(=O)C6CCCN6)CC5)nc4c3)ccc2o1` (stereo not drawn): the IC50 in assay [2] and in assay [3] was under 100 nM each time. As for `C[C@@H](N)C(=O)N1CCN(c2cnc3ccc(-c4ccc5oc(N)nc5c4)nc3n2)CC1`, the IC50 in assay [3] is under 100 nM.
